From ChEMBL document CHEMBL1201862, “PubChem BioAssay data set” (2004)
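Where inhibition never reached the appropriate level, the endpoint shown equals the highest concentration tested. Otherwise, values were interpolated linearly from a five-concentration, 48-hour dose response in 96-well plates. GI50: concentration for 50% inhibition of growth.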 The source made the active and inactive calls. No stated cut-off is given here; in the data, active = GI50 up to about 1.1 µM and inactive = higher.

Assays:
Experiment in all cases: growth of human tumour cells (NCI), 48 h
K562 = test system: K562
OVCAR-4 = test system: OVCAR-4
SF-539 = test system: SF-539
Hs-578T = test system: Hs-578T
OVCAR-5 = test system: OVCAR-5
DU-145 = test system: DU-145
786-0 = test system: 786-0
NCI-H522 = test system: NCI-H522
UO-31 = test system: UO-31
HCC 2998 = test system: HCC 2998
LOX IMVI = test system: LOX IMVI
MOLT-4 = test system: MOLT-4
U-251 = test system: U-251
T47D = test system: T47D
A549 = test system: A549
PC-3 = test system: PC-3
KM12 = test system: KM12
SK-MEL-5 = test system: SK-MEL-5
HCT-116 = test system: HCT-116
SK-MEL-2 = test system: SK-MEL-2

Row | SMILES | GI50 (K562) | GI50 (OVCAR-4) | GI50 (SF-539) | GI50 (Hs-578T) | GI50 (OVCAR-5) | GI50 (DU-145) | GI50 (786-0) | GI50 (NCI-H522) | GI50 (UO-31) | GI50 (HCC 2998) | GI50 (LOX IMVI) | GI50 (MOLT-4) | GI50 (U-251) | GI50 (T47D) | GI50 (A549) | GI50 (PC-3) | GI50 (KM12) | GI50 (SK-MEL-5) | GI50 (HCT-116) | GI50 (SK-MEL-2)
1 | Cc1c(N)nc(C(CC(N)=O)NCC(N)C(N)=O)nc1C(=O)NC(C(=O)NC(C)C(O)C(C)C(=O)NC(C(=O)NCCc1nc(-c2nc(C(=O)NCCCNC(C)c3ccccc3)cs2)cs1)C(C)O)C(OC1OC(CO)C(O)C(O)C1OC1OC(CO)C(O)C(OC(N)=O)C1O)c1c[nH]cn1 (stereo not given) | 10.1 µM (inactive) | 7.4 µM (inactive) | 0.0233 µM (active) | 0.0482 µM (active) | 5.96 µM (inactive) | 7.29 µM (inactive) | 0.419 µM (active) | 2.65 µM (inactive) | 0.283 µM (active) | 21.6 µM (inactive) | 0.108 µM (active) | 1.83 µM (inactive) | 1.26 µM (inactive) | 5.26 µM (inactive) | 0.847 µM (active) | > 50 µM (inactive) | 16.6 µM (inactive) | 1.05 µM (active) | 0.328 µM (active) | 16.8 µM (inactive)
2 | CC1(C)CC(O)C2=C(O1)C(=O)c1ncccc1C2=O (stereo not given) | 2.11 µM (inactive) | 1.73 µM (inactive) | 1.84 µM (inactive) | 2.7 µM (inactive) | 1.89 µM (inactive) | 5.07 µM (inactive) | 1.87 µM (inactive) | 1.29 µM (inactive) | 1.85 µM (inactive) | 5.41 µM (inactive) | 1.58 µM (inactive) | 1.93 µM (inactive) | 1.75 µM (inactive) | 2.26 µM (inactive) | 9.51 µM (inactive) | 2.9 µM (inactive) | 3.48 µM (inactive) | 1.66 µM (inactive) | 2.28 µM (inactive) | 2.58 µM (inactive)
3 | O=C1C=CC(=O)c2c(O)ccc(O)c21 [NAPHTHAZALIN] | 0.425 µM (active) | 2.39 µM (inactive) | 2.49 µM (inactive) | 2.17 µM (inactive) | 6.95 µM (inactive) | 14.8 µM (inactive) | 1.14 µM (inactive) | 0.505 µM (active) | 2.11 µM (inactive) | 4.66 µM (inactive) | 1.56 µM (inactive) | 0.15 µM (active) | 5.79 µM (inactive) | 2.07 µM (inactive) | 8.95 µM (inactive) | 12.8 µM (inactive) | 5.25 µM (inactive) | 2.14 µM (inactive) | 0.9 µM (active) | 7.64 µM (inactive)
4 | O=C(c1cccs1)N(Cc1cccnc1)C(=S)N(Cc1cccnc1)C(=O)c1cccs1 | 26.4 µM (inactive) | > 100 µM (inactive) | 29.9 µM (inactive) | 53.2 µM (inactive) | > 100 µM (inactive) | > 100 µM (inactive) | 3.56 µM (inactive) | 36.5 µM (inactive) | > 100 µM (inactive) | > 100 µM (inactive) | 5.5 µM (inactive) | > 100 µM (inactive) | 32.7 µM (inactive) | > 100 µM (inactive) | > 100 µM (inactive) | 41.8 µM (inactive) | 24.4 µM (inactive) | > 100 µM (inactive) | 45.8 µM (inactive) | 26.2 µM (inactive)
5 | O=C1c2ccccc2NC2C(O)c3ccccc3N12 (stereo not given) | 13.9 µM (inactive) | 25.5 µM (inactive) | > 100 µM (inactive) | 25.1 µM (inactive) | 82.2 µM (inactive) | 45.6 µM (inactive) | > 100 µM (inactive) | 4.09 µM (inactive) | 40.8 µM (inactive) | 42.9 µM (inactive) | 36.6 µM (inactive) | 21 µM (inactive) | 30 µM (inactive) | 6.5 µM (inactive) | 10.9 µM (inactive) | 35.4 µM (inactive) | 35.2 µM (inactive) | 52.7 µM (inactive) | 30.5 µM (inactive) | 52 µM (inactive)
6 | CC1=NN(c2cc(Cl)c(S(=O)(=O)O)cc2Cl)C2(C1)C(Cl)C(=O)N2c1nc2ccccc2s1 (stereo not given) | > 100 µM (inactive) | > 100 µM (inactive) | > 100 µM (inactive) | > 100 µM (inactive) | > 100 µM (inactive) | 29.3 µM (inactive) | > 100 µM (inactive) | 19.6 µM (inactive) | 22.2 µM (inactive) | > 100 µM (inactive) | 29.4 µM (inactive) | 45.6 µM (inactive) | > 100 µM (inactive) | 66.1 µM (inactive) | > 100 µM (inactive) | 27.8 µM (inactive) | 97.9 µM (inactive) | > 100 µM (inactive) | > 100 µM (inactive) | > 100 µM (inactive)
